# Read-outs that look alike come from different tables or passages of the source.
# Experiments:
# [1] = Acute toxicity test in rat by the oral route; assay type: in vivo; details: in vivo, male rat, in olive oil, after 7 days
# From the text: (§1) Acute toxicity test in rat by the oral route
# rat = experiment: Acute toxicity test in rat by the oral route; assay type: in vivo; details: Table 1, rat, 10080 min
# From the text: as §1
# [2] = tested on: green rice leafhoppers (Nephotettix cincticeps Uhler); experiment: Mortality test with green rice leafhoppers by topical application method; details: Nephotettix cincticeps, in Oryza sativa, 24 h
# Protocol: Mortality test with green rice leafhoppers (Nephotettix cincticeps Uhler) by topical application method
# Then, the insects were kept at 25° C. with access to rice plant seedlings. The insects were used in groups of 15 individuals each.
# [3] = tested on: two-spotted spider mites (Tetranychus urticae Koch); experiment: Mortality test with two-spotted spider mites by spray application method; assay type: in vivo; details: 48 h, 200 ppm spray, two days, read-out: Percent decrease of population (%)
# Protocol: Mortality test with two-spotted spider mites (Tetranychus urticae Koch) by spray application method
# To a 5% aqueous solution of acetone was added dropwise a small amount of Tween-20 (polyethylene sorbitan monolaurate) as a surfactant. […] From 30 to 50 adult two-spotted spider mites (Tetranychus urticae Koch) were released on the leaves of kidney-bean plants in the dicotyledonous stage in a pot 9 cm in diameter, followed by a spray application of the above solution. The pot was kept in a constant-temperature chamber at 26° C. and two days later the mites were examined for deaths. The percent decrease of population was then calculated.
# [4] = tested on: tobacco cutworm (Prodenia litura); experiment: Utility Example-5: spray on soy bean leaves, tobacco cutworm larvae; assay type: in vivo; details: 48 h; 13 ppm; 2 days
# Protocol: An acetone solution of one of the test compounds as mentioned in Table 13 and Tween-20 (the same surfactant as mentioned hereinbefore) was prepared. This acetone solution was diluted with water to prepare a solution containing the test compound in a predetermined concentration. Leaves of soy bean in pots were sprayed with the above diluted solution at the rate of 20 ml/pot and, after one day, ten 3-instar larvae of tobacco cutworm (Prodenia litura) were released on the leaves. The pots were kept in a constant-temperature chamber at 25° C.
# [5] = tested on: green rice leafhoppers (Nephotettix cincticeps Uhler); experiment: Utility Example-4: 0.2% dust on rice seedlings, green rice leafhoppers; assay type: in vivo; details: 5 kg per 10 ares, 24 hours, resistant to organophosphorus and carbamate pesticides
# From the text: (§2) A 0.2% dust preparation of each of the cis- and trans-isomers and a 50:50 mixture of the cis- and trans-isomers of Compound (1) and of Compound (2) as prepared by the procedure described in Formulation Example-3 was applied to rice seedlings by means of a bell-jar duster at the rate of 5 kg per 10 ares. […] In all cases, the mortality was not less than 90%.
# [6] = tested on: houseflies (Musca domestica); experiment: Mortality test with houseflies by topical application method; details: 24 h
# [7] = tested on: green rice leafhoppers (Nephotettix cincticeps); experiment: Utility Example-6: 0.5% dust on rice seedlings, green rice leafhoppers; assay type: in vivo; details: 1 kg per 10 ares, 24 hours, resistant to organophosphorus and carbamate pesticides
# From the text: as §2, with “A 0.5%” for “A 0.2%”, “Formulation Example-4” for “Formulation Example-3”, “of 1” for “of 5”, “ares. Then, 30 green rice leafhoppers (Nephotettix cincticeps) resistant to organophosphorus and carbamate pesticides were released.” for “ares.”
# [8] = tested on: green rice leafhoppers (Nephotettix cincticeps Uhler); experiment: Utility Example-2: spray on rice plants, green rice leafhoppers; assay type: in vivo; details: 7 ml/pot, 24 hours
# Protocol: A 30% emulsifiable concentrate of each of the cis- and trans-isomers and a 50:50 mixture of the cis- and trans-isomers of Compound (1) and Compound (2) as prepared by the procedure described in Formulation Example-1 was diluted with water to a concentration of 80 ppm as active compound. Rice plants 4 weeks after sowing in pots (each pot 6 cm in diameter, 7 seedlings) were sprayed with the above solution at the rate of 7 ml/pot and, after drying in the air, each pot was covered with a wire-mesh cage. Then, 20 female adult green rice leafhoppers (Nephotettix cincticeps Uhler) were released into the cage. The caged pots were kept in a constant-temperature chamber at 25° C. […] In all groups, the mortality values were not less than 90%.
# [9] = tested on: rice stem borers (Chilo suppressalis Walker); experiment: Mortality test with rice stem borers by topical application method; assay type: in vivo; details: 24 h
# Protocol: Mortality test with rice stem borers (Chilo suppressalis Walker) by topical application method
# Using a microsyringe, 0.5 μl of the above solution was applied to the thoracic abdominal region of each final-instar larva of rice stem borer (Chilo suppressalis Walker). […] The test larvae were used in groups of 20 individuals each.
# [10] = tested on: tobacco cutworms (Prodenia litura Fabricius); experiment: Mortality test with tobacco cutworms by topical application method; assay type: in vivo; details: 24 h
# Protocol: Mortality test with tobacco cutworms (Prodenia litura Fabricius) by topical application method
# Using a microsyringe, 0.5 μl of the above solution was dripped onto the thoracic adbominal region of each of 3-instar tobacco cutworm (Prodenia litura Fabricius) larvae. […] The test larvae were used in groups of 20 individuals each.
# [11] = tested on: killifish (Orizias latipes); experiment: Fish toxicity test with killifish; assay type: in vivo; details: Table 1; 48 hrs.
# Protocol: (§3) Fish toxicity test with killifish (Orizias latipes)
# (§4) An acetone solution of one of the test compounds as mentioned in Table 8 was prepared by adding said test compound to 15 ml of acetone. To 10 liters of water was added a predetermined amount of the above acetone solution and the mixture was stirred thoroughly to prepare an aqueous solution containing the test compound in a predetermined concentration. This was used as a test water. After the each test water was moderately aerated, ten killifishes (Orizias latipes) with a body weight of about 0.25 g and a body length of about 2.5 cm were released into said each test water which was maintained at 25±1° C. After 48 hours, the test fish was examined for death. The TLm (median tolerance limit, ppm) was determined.
# [12] = Fish toxicity test with killifish; assay type: in vivo, Orizias latipes; details: water, killifish, 25±1° C., read-out: TLm (48 hrs.)
# Protocol: as §3, §4
# [13] = tested on: small brown planthoppers (Laodelphax striatellus Fallen); experiment: Utility Example-3: spray on rice plants, small brown planthoppers; assay type: in vivo; details: 7 ml/pot, 24 hours
# Protocol: A 30% emulsifiable concentrate of each of the cis- and trans-isomers and a 50:50 mixture of the cis- and trans-isomers of Compound (1) and of Compound (2) as prepared by the procedure described in Formulation Example-1 was diluted with water to a concentration of 80 ppm as active compound. Rice plants 4 weeks after sowing in pots (each pot 6 cm in diameter, 7 seedlings) were sprayed with the above diluted solution at the rate of 7 ml/pot and, after drying in the air, each pot was covered with a wire-mesh cage. Then, 30 adult small brown planthoppers (Laodelphax striatellus Fallen) were released into the cage. The pots were kept in a constant-temperature chamber at 25° C. […] In all groups, the mortality was not less than 90%.
# [14] = Fish toxicity test with guppies; assay type: in vivo, Lebistes reticulatus; details: guppy, water, guppies, 20° C., read-out: TLm (48 hrs.)
# Outline: (§5)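 Ten female guppies, 3–4 months old, held at 20 °C in water containing surfactant and test compound added in acetone solution. TLm (median tolerance limit, ppm) determined.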
# [15] = tested on: guppies (Lebistes reticulatus); experiment: Fish toxicity test with guppies; assay type: in vivo; details: Table 1; 48 hrs.
# Outline: as §5
# [16] = tested on: brown planthoppers (Nilaparvata lugens); experiment: Utility Example-7: 0.5% dust on rice seedlings, brown planthoppers; assay type: in vivo; details: 1 kg per 10 ares, 24 hours
# From the text: as §2, with “A 0.5%” for “A 0.2%”, “Formulation Example-4” for “Formulation Example-3”, “rice seedlings, on which 30 adult brown planthoppers (Nilaparvata lugens) were released,” for “rice seedlings”, “of 1” for “of 5”
structure (smiles),measurement,setting,value
"CC1(C)C(C=C(Cl)Cl)C1C(=O)OCc1cccc(Oc2ccc(Cl)cc2)c1 (stereo not drawn) [Compound (1) cis-/trans- = 50:50, 3-(4-chlorophenoxy)benzyl 2,2-dimethyl-3-(2,2-dichlorovinyl)cyclopropanecarboxylate]",LD50 at 168 h,[1],> 3000 mg/kg
same,Acute oral toxicity to rat LD50,rat,> 3000 mg/kg
same,mortality at 0.01 µg/female,[2],100%
same,mortality at 0.1 µg/female,[2],100%
same,mortality at 1 µg/female,[2],100%
same,LD50,"[2]; read-out: LD50 (median lethal dose), topical, green rice leafhoppers",1.32 mg/kg
same,mortality at 10 ng,"[2]; read-out: Pesticidal effect, green rice leafhopper",100%
same,mortality at 200 ppm,[3],100%
same,mortality at 13 ppm,[4],100%
same,mortality,[5],not less than 90%
same,mortality at 0.5 µg/female,[6],100%
same,mortality at 1 µg/female,[6],100%
same,mortality at 0.001 mg,"[6]; read-out: Pesticidal effect, housefly",100%
same,mortality,[7],not less than 90%
same,mortality at 80 ppm,[8],≥ 90%
same,mortality at 1 µg/larva,[9],100%
same,mortality at 10 µg/larva,[9],100%
same,mortality at 0.001 mg,"[9]; read-out: Pesticidal effect, rice stem borer",100%
same,mortality at 0.0001 mg,[10],100%
same,mortality at 0.0001 mg,"[10]; read-out: Pesticidal effect, tobacco cutworm",100%
same,"Toxicity to fish TLm, killifish",[11],> 10 ppm
same,LC50 at 48 h,[12],> 10 µg/mL
same,mortality at 80 ppm,[13],≥ 90%
same,LC50 at 48 h,[14],> 5 µg/mL
same,"Toxicity to fish TLm, guppy",[15],> 5 ppm
same,mortality,[16],not less than 90%

# From US4389412A, “Substituted cyclopropanecarboxylic acid esters and pesticidal compositions containing the same as active ingredient” (priority 1979, dated 1983)
